In patent publication US7972815B2, “Method of producing sugar chain using human G4 polypeptide” (Kyowa Hakko Kirin Co., Ltd., priority 1999, dated 2011):
Like-named read-outs stand apart in the source and are kept apart here.

Experiments:
[1] = target: T1, β1,3-N-acetylglucosaminyl transferase (G4) (Homo sapiens, UniProt Q9Y2A9, R328H); experiment: Substrate specificity of G4 with pyridylaminated oligosaccharides; type: biochemical; conditions: pyridylaminated substrate 50 μmol/l, 37° C., 14.5 hours, activity on LNnT defined as 100%
T1 construct: made in house; host or cells: Sf21 insect cells infected with recombinant baculovirus from pVL1393-F2G4
T1 sequence (Q9Y2A9 38-372 R328H): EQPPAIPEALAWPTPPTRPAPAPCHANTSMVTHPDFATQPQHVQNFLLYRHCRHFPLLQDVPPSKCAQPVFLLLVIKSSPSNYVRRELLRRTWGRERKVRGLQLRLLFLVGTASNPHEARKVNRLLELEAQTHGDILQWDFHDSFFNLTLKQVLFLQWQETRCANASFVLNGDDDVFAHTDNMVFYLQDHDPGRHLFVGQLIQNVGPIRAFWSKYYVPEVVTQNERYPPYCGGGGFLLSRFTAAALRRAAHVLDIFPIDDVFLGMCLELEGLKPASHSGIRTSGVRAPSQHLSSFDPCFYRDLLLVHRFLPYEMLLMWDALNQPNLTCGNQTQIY
Description: Examination on the substrate specificity of a β1,3-N-acetylglucosaminyl transferase (G4) was carried out by using the FLAG peptide-fused G4 polypeptide produced as a secreted form in Example 10.
(§1) The method shown in Example 8 was used as the activity measuring method. Specifically, after the reaction at 37° C. for 14.5 hours in 30 μl of an assay solution [200 mmol/l of MOPS (pH 7.5), 20 mmol/l of UDP-GlcNAc (SIGMA), 20 mmol/l of MnCl2, 50 μmol/l of pyridylaminated sugar chain substrate and 15 μl of the above eluate], products were detected by HPLC. As substrates, LNnT, lacto-N-tetraose (Galβ1-3GlcNAcβ1-3Galβ1-4Glc, hereinafter referred to as “LNT”), lacto-N-fucopentaose II (Galβ1-3(Fucα1-4)GlcNAcβ1-3Galβ1-4Glc, hereinafter referred to as “LNFP-II”), lacto-N-fucopentaose III (Galβ1-4(Fucα1-3)GlcNAcβ1-3Galβ1-4Glc, hereinafter referred to as “LNFP-III”), lacto-N-fucopentaose V (Galβ1-3GlcNAcβ1-3Galβ1-4(Fucα1-3)Glc, hereinafter referred to as “LNFP-V”) and lacto-N-difucohexaose II (Galβ1-3(Fucα1-4)GlcNAcβ1-3Galβ1-4(Fucα1-3)Glc, hereinafter referred to as “LNDFH-II”) (all manufactured by Oxford Glycosystems) were used after fluorescently labeling them with aminopyridine. Fluorescence labeling of these substrates were carried out in accordance with the usual method [Agric. Biol. Chem., 54, 2169 (1990)].
(§2) For each substrate, the reaction was carried using the assay solution with or without UDP-GlcNAc (sugar donor), and then HPLC was carried out and peaks appeared only in the assay solution containing UDP-GlcNAc were defined as products.
(§3) The assay solution after completion of the reaction was treated at 100° C. for 5 minutes and then centrifuged at 10,000×g for 5 minutes, and a portion (5 μl) of the thus obtained supernatant was applied to HPLC.
(§4) The HPLC was carried out by using TSK-gel ODS-80Ts column (4.6×300 mm; Tosoh); 0.02 mol/l ammonium acetate buffer (pH 4.0) was used as the eluate at an elution temperature of 50° C. and at a flow rate of 0.5 ml/min.
(§5) Products were detected by using a fluorescence spectrum photometer FP-920 (JASCO Corporation) (excitation wavelength 320 nm, radiation wavelength 400 nm).

[2] = target: T2, β1,3-N-acetylglucosaminyl transferase (G3) (Homo sapiens, UniProt Q9NY97); experiment: Substrate specificity of G3 with pyridylaminated oligosaccharides; type: biochemical; conditions: pyridylaminated substrate, 37° C., 2 hours, activity on LNnT defined as 100%
T2 construct: made in house; host or cells: Sf21 insect cells infected with recombinant baculovirus from pVL1393-F2G3
T2 sequence (Q9NY97 31-397): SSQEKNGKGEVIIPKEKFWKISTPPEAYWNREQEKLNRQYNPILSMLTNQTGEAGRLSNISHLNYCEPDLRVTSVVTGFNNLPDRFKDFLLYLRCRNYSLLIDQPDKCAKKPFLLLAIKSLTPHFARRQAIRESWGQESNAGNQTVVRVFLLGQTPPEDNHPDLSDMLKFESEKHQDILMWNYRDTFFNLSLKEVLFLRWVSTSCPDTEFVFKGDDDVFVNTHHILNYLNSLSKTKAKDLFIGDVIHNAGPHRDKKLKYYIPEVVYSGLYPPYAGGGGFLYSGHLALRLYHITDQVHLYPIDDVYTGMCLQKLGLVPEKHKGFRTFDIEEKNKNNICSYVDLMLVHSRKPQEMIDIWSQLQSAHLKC
Description: as §1, §2, §3, §4, §5
Substrate specificity of a β1,3-N-acetylglucosaminyl transferase (G3) was examined using the FLAG peptide-fused G3 polypeptide purified in Example 14.
Substrate specificity of the FLAG peptide-fused G3 polypeptide was examined by the method shown in Example 11(1). The reaction was carried out at 37° C. for 2 hours.

[3] = target: T3, β1,3-N-acetylglucosaminyl transferase (G7) (Homo sapiens, UniProt Q9C0J1); experiment: Substrate specificity of G7 with pyridylaminated oligosaccharides; type: biochemical; conditions: pyridylaminated substrate, 37° C., 16 hours, activity for LNnT defined as 100%
T3 construct: made in house; host or cells: Sf21 insect cells infected with recombinant baculovirus from pVL1393-F2G7
Description: as §1, §2, §3, §4, §5
Examination of the substrate specificity of a β1,3-N-acetylglucosaminyl transferase (G7) was carried out using the FLAG peptide-fused G7 polypeptide purified in Example 17.
Substrate specificity of the FLAG peptide-fused G7 polypeptide was examined by the method shown in Example 11(1). The reaction was carried out at 37° C. for 16 hours.

[4] = target: T1, β1,3-N-acetylglucosaminyl transferase (G4); experiment: Substrate specificity of G4 with unlabeled oligosaccharides (HPAE/PAD); type: biochemical; conditions: unlabeled substrate, 37° C., 16 hours, activity on LNnT defined as 100%
Description: (§6) The reaction using the glycosyltransferase was carried out as follows. The reaction was carried out at 37° C. for 16 hours in 40 μl of an assay solution [50 mmol/l MOPS (pH 7.5), 5 mmol/l UDP-GlcNAc (SIGMA), 5 mmol/l MnCl2, […] and 10 μl of the above eluate]. Next, the reaction solution was treated at 100° C. for 5 minutes and then centrifuged at 10,000×g for 20 minutes to obtain the supernatant, and a portion thereof was analyzed using HPAE/PAD (High Performance Anion Pulsed Amperometoric Detection; manufactured by DIONEX). The specific method was carried out in the usual way [Anal. Biochem., 189, 151 (1990), J. Biol. Chem., 273, 433 (1998)].
(§7) As substrates, the following unlabeled oligosaccharides were used: lactose (Galβ1-4Glc), N-acetyllactosamine (Galβ1-4GlcNAc, hereinafter referred to as “LacNAc” in some cases), LNnT, LNT and lacto-N-neohexaose (Galβ1-4GlcNACβ1-3Galβ1-4GlcNAcβ1-3Galβ1-4Glc, hereinafter referred to as “LNnH”).
as §2
(§8) In identifying the product, coincidence of its elution time with that of a standard sugar chain was used as the index. As the standard sugar chains, GlcNAcβ1-3Galβ1-4Glc, GlcNAcβ1-3Galβ1-4GlcNAc and GlcNAcβ1-3Galβ1-4GlcNAcβ1-3Galβ1-4Glc were used.

[5] = target: T2, β1,3-N-acetylglucosaminyl transferase (G3); experiment: Substrate specificity of G3 with unlabeled oligosaccharides; type: biochemical; conditions: unlabeled substrate, 37° C., 2 hours, activity for LNnT defined as 100%
Description: as §6, §7, §2, §8
Substrate specificity of the FLAG peptide-fused G3 polypeptide was examined by the method shown in Example 11(2). The enzyme reaction was carried out at 37° C. for 2 hours.

[6] = target: T3, β1,3-N-acetylglucosaminyl transferase (G7); experiment: Substrate specificity of G7 with unlabeled oligosaccharides; type: biochemical; conditions: unlabeled substrate, 37° C., 15.5 hours, activity for LNnT defined as 100%
Description: as §6, §7, §2, §8
Substrate specificity of the FLAG peptide-fused G7 polypeptide was examined using the method shown in Example 11(2). The enzyme reaction was carried out at 37° C. for 15.5 hours.

β3GnT = target: T4, β3GnT (Homo sapiens, UniProt Q9NY97); conditions: reported values, Proc. Natl. Acad. Sci. USA, 96, 406 (1999), cited from earlier work
T4 sequence (Q9NY97 1-397): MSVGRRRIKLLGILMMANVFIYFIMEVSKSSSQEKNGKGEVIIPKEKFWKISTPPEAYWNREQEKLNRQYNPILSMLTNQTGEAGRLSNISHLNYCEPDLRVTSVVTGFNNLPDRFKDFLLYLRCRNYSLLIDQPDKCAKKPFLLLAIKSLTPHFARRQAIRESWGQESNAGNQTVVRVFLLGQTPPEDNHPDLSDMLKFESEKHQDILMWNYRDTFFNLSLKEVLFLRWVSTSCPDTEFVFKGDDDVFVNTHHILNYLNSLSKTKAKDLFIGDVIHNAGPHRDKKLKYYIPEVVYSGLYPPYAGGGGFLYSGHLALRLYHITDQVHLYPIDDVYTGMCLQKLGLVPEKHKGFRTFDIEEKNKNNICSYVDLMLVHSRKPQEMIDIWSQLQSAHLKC

T3 sequence (Q9C0J1 56-378): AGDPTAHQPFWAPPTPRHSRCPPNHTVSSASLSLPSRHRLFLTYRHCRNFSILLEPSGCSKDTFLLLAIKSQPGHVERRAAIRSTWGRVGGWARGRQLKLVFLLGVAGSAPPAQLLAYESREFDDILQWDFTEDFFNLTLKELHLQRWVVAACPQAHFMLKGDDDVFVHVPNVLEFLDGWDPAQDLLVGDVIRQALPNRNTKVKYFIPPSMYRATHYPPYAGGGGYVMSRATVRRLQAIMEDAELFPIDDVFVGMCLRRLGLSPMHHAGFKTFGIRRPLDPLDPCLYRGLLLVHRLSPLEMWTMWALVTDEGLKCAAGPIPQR

Compound | Relative activity (%) [1] | Relative activity (%) [2] | Relative activity (%) [3] | Relative activity (%) [4] | Relative activity (%) G3 [5] | Relative activity (%) G7 [6] | Relative activity (%) β3GnT (β3GnT; Table 4) | Relative activity (%) β3GnT (β3GnT; Table 6)
CC(=O)N[C@H]1[C@H](O[C@H]2[C@@H](O)[C@@H](CO)O[C@@H](O[C@@H]([C@H](O[C@@H]3O[C@@H](C)[C@@H](O)[C@@H](O)[C@@H]3O)[C@@H](O)C=O)[C@H](O)CO)[C@@H]2O)O[C@H](CO)[C@@H](O[C@@H]2O[C@@H](C)[C@@H](O)[C@@H](O)[C@@H]2O)[C@@H]1O[C@@H]1O[C@H](CO)[C@H](O)[C@H](O)[C@H]1O [LNDFH-II, lacto-N-difucohexaose II] | 0% | 0% | 0% |  |  |  |  | 
CC(=O)N[C@H]1[C@H](O[C@H]2[C@@H](O)[C@@H](CO)O[C@@H](O[C@@H]([C@H](O)[C@@H](O)C=O)[C@H](O)CO)[C@@H]2O)O[C@H](CO)[C@@H](O[C@@H]2O[C@@H](C)[C@@H](O)[C@@H](O)[C@@H]2O)[C@@H]1O[C@@H]1O[C@H](CO)[C@H](O)[C@H](O)[C@H]1O [LNFP-II, lacto-N-fucopentaose II] | 0% | 0% | 0% |  |  |  |  | 
CC(=O)N[C@H]1C(O)O[C@H](CO)[C@@H](O[C@@H]2O[C@H](CO)[C@H](O)[C@H](O)[C@H]2O)[C@@H]1O (stereo partly shown) [LacNAc, N-acetyllactosamine] |  |  |  | 0% | 21% | 8.5% | 95.5% | 95.5%
OC[C@H]1O[C@@H](O[C@H]2[C@H](O)[C@@H](O)C(O)O[C@@H]2CO)[C@H](O)[C@@H](O)[C@H]1O (stereo partly shown) [Lactose, lactose] |  |  |  | 235% | 128% | 32.6% | 67.1% | 67.1%
lacto-N-fucopentaose III [LNFP-III] | 4.7% | 0% | 7.4% |  |  |  |  | 
lacto-N-fucopentaose V [LNFP-V] | 65.1% | 30.8% | 8.1% |  |  |  |  | 
lacto-N-neohexaose [LNnH] |  |  |  | 45% | 132% | 0.05% |  | 
